One data set concerns HLMEC. More on the design: method as in PMID 24859537. As to conditions: HLMEC cell line; cited from earlier work.
The subject of data set [1] is SufA. More on the design: method as in PMID 24859537. Particulars: cited from earlier work.
The test system of data set [2] is SufA. Set-up: method as in PMID 24859537. Particulars: cited from earlier work. The source holds these as a separate data set.
The next data set relates to BALB/3T3. Set-up: method as in PMID 24859537. Particulars: BALB/3T3 cell line; cited from earlier work.
The next data set concerns SplA protease. Set-up: method as in PMID 24375505. Particulars: cited from earlier work.
In data set [3] the test system is SufA protease. Kind of data set: SufA inhibition studies (fluorogenic substrate ABZ-Ile-Ser-Lys-ANB, progress curve method). It is filed as biochemical, Finegoldia magna. The protocol: The assays were performed at 37°C with an excitation wavelength of 320 nm for ABZ and an emission wavelength of 410 nm using 96-well microtiter plates (COSTAR, Corning Inc., Gdańsk, Poland) in 0.1 M Tris-HCl (pH 8.0) with 0.01 M KCl. The concentrations of substrate (ABZ-Ile-Ser-Lys-ANB) and SufA protease were 25 µM and 4 µg/mL, respectively. The SufA protease was incubated for 10 min with the tested compound, dissolved in DMSO (inhibitor final concentration ranging from 0 to 300 µM), and then the measurement was taken for 10 min. Each assay was performed in at least duplicate. The inhibitory activity was measured, and the percentage of inhibition was calculated with the equation: % inhibition = RFUtest / RFU− ∗ 100%,
where RFU represents the relative fluorescence units, test refers to the signal from reactions containing an inhibitor, and (-) represents the signal from the control reactions (without an inhibitor). The inhibitory effects of the synthesized compounds were evaluated by means of the progress curve method.
where [P] is the product concentration at time t, vi is the initial velocity, and vs is the steady state velocity. […]

A further data set concerns ctDNA. Kind of data set: DNA intercalation by circular dichroism spectroscopy. Particulars: inhibitor 100 µM, ctDNA 50 µM, 1% DMSO. In kind it is binding, ox. The protocol:
The measurement parameters were set as follows: the wavelength range was set from 220 nm to 320 nm, step – at every 0.2 nm, and 4 accumulations. Measurements were performed in a Justcode M cuvette with an optical path of 1 mm. 200 μL of the analyzed solution was introduced into the cuvette each time. The apparatus was zeroed using phosphate buffer with the following composition: 150 mM NaCl, 20 mM PB, 1 mM EDTA. Afterward, the samples (maintaining a constant DMSO concentration of 1%) of ctDNA (50 µM), inhibitor (100 µM), and inhibitor (100 µM) with ctDNA (50 µM) were prepared. First, a sample of the ctDNA solution was measured with a CD spectrometer to check the graph for pure DNA. Then, a sample of the inhibitor solution was measured, against which the apparatus was blanked because the inhibitor molecule itself could produce a CD effect, potentially falsifying the results. At the end, a sample of the actual solution containing the inhibitor and ctDNA was measured.
(Circular dichroism is widely used to follow secondary structure.)

The subject of data set [4] is SufA protease. The data set is described as follows: Inhibition of SufA-mediated degradation of human fibrinogen (SDS-PAGE). In kind it is biochemical, Finegoldia magna. As to conditions: SufA 25 µg/mL, inhibitor 1.3 mM, pre-incubation 60 min 37°C, SDS-PAGE reducing. The protocol: (§1) The SufA protease was incubated with the specific SufA inhibitor for 60 min at 37°C, maintaining a constant DMSO concentration of 1%. The reference sample contained an appropriate amount of DMSO instead of the inhibitor. After incubation, fibrinogen and LL-37 proteins were added to each sample of enzyme (25 µg/mL) or enzyme with inhibitor (25 µg/mL, 1.3 mM). Samples were analyzed by PAGE using the standard Laemmli protocol for fibrinogen and the procedure developed by Judd for the LL-37 peptide. Raw gel results of the inhibition of SufA-induced degradation of human fibrinogen and LL-37 by tested inhibitors after SDS-PAGE electrophoresis analysis are presented in Supplementary Biochemical Part S1-S2 and Figures S9–S11.

Data set [5] deals with SufA protease. The data set is described as follows: Inhibition of SufA-mediated degradation of human antimicrobial peptide LL-37 (PAGE). It is filed as biochemical, Finegoldia magna. As to conditions: SufA 25 µg/mL, inhibitor 1.3 mM, pre-incubation 60 min 37°C. The protocol:
as §1

For the next data set, the system named is E. coli PCM 2561. The data set is described as follows: Antibacterial activity, growth reduction (OD600, 24 h). As to conditions: Escherichia coli, PCM2561, MH broth. In kind it is cell-based. The procedure: (§2) The antibacterial properties of the inhibitors were assessed in Mueller-Hinton (MH) broth at 37°C for E. coli, S. marcescens, and S. aureus. For F. magna, the antibacterial properties of the inhibitors were tested in Todd Hewitt broth at 37°C under anaerobic conditions. An overnight culture of the tested bacteria was diluted 200-fold in fresh medium and incubated at 37°C until the OD600 reached 0.3. Subsequently, 100 µL of the inhibitor and antibiotic control (at concentrations ranging from 0 to 250 µg/mL) were added to 900 µL of bacterial culture, which had been previously diluted to an OD600 of less than 0.01. The resulting samples were incubated for 24 h at 37°C with shaking at 100 rpm. Then, 200 µL of each sample was transferred to a well plate, and the absorbance was measured at a wavelength of 600 nm using a microplate reader. To determine the antibacterial properties of the inhibitors, the data were normalized against a control culture (without inhibitor or antibiotics). The IC50 values were calculated using GraphPad Prism through nonlinear regression, employing the following equation model: Y=YBottom+(YTop−YBottom)/(1+10^∧((LogIC50−X)∗(−1.0))),
(§3) where YBottom and YTop represent the plateaued units of the Y-axis. The IC50 value represents the concentration that produces a half-maximal response between YBottom and YTop, thus measuring the potency of a compound in inhibiting bacterial viability and indicating a 50% reduction in bacterial growth. The effect of gentamicin on bacterial growth reduction, including its IC50 values, can be found in the Supplementary Material (Supplementary Microbiology Part S1, Figures S12)

In the next data set the test system is F. magna PCM 2822. The data set is described as above. It is filed as cell-based. Particulars: Finegoldia magna, read-out: IC50 growth reduction. The procedure:
as §2, §3

The next data set concerns S. aureus PCM 2602. The description is as above. It is filed as cell-based. Particulars: Staphylococcus aureus, PCM2602, MH broth. The protocol:
as §2, §3

In another data set the test system is S. marcescens PCM 549. The data set is described as above. In kind it is cell-based. As to conditions: Serratia marcescens, read-out: IC50 growth reduction. The protocol: as §2, §3
The next data set relates to S. aureus. As to conditions: read-out: literature IC50; cited from earlier work.
The test system of a further data set is E. coli. Particulars: read-out: literature IC50; cited from earlier work.

Read-outs that look alike come from different tables or passages of the source.

On to `N=C(N)c1ccc2cc(C(NC(=O)OCc3ccccc3)P(=O)(Oc3ccccc3)Oc3ccccc3)ccc2c1` (stereo not drawn) [Cbz-6-AmNpth^P(OC6H5)2], for which the Cytotoxicity entry in the data set with HLMEC and in the data set with BALB/3T3 was “no significant cytotoxicity” throughout. The k2/Ki with SufA [1] is given as 10,800 M^− 1 s^− 1. Moreover, the “Inhibition of degradation of fibrinogen” value with SufA [2] is reported as “completely inhibited the degradation of fibrinogen”.
With `CC(C)CC(NC(=O)C1CCCN1C(=O)C(NC(=O)OCc1ccccc1)C(C)C)P(=O)(Oc1ccc(S(C)(=O)=O)cc1)Oc1ccc(S(C)(=O)=O)cc1` (stereo not drawn) [Cbz-Val-Pro-Leu^P(OC6H4-4-SOOCH3)2], the k2/Ki in the data set with SplA protease is > 8000 M⁻¹ s⁻¹.
On to `CC(C)C(NC(=O)OCc1ccccc1)C(=O)N1CCCC1C(=O)NC(Cc1ccccc1)P(=O)(Oc1ccc(S(C)(=O)=O)cc1)Oc1ccc(S(C)(=O)=O)cc1` (stereo not drawn) [Cbz-Val-Pro-Phe^P(OC6H4-4-SOOCH3)2], for which the k2/Ki in the data set with SplA protease is > 8000 M⁻¹ s⁻¹.
One may read the IC50 as the concentration that gives 50% inhibition. In the data set on SufA protease [3] (second-order rate constant, 37°C, pH 8.0), `CSc1ccc(OP(=O)(Oc2ccc(SC)cc2)C(NC(=O)OCc2ccccc2)c2ccc3cc(C(=N)N)ccc3c2)cc1` (stereo not drawn) [Compound 8a, Cbz-6-AmNphth^P(OC6H4-4-SCH3)2] gave a k2/Ki of 1500 M⁻¹ s⁻¹. Besides, the “DNA intercalation (change of CD spectrum of ctDNA)” value with ctDNA was “does not induce DNA intercalation”. In addition, the “Inhibition of SufA-induced degradation of human fibrinogen” value (“Inhibition … of human fibrinogen” for short) with SufA protease [4] is on record as “completely prevented fibrinogen degradation”. Further, the “Inhibition of SufA-induced degradation of LL-37” value in the data set on SufA protease [5] was “inhibition of LL-37 cleavage”. The IC50 in the data set on E. coli PCM 2561 stood at 28200 nM; in the data set with F. magna PCM 2822 (PCM2822, Todd Hewitt broth, anaerobic, 24 h), 20 nM; in the data set with S. aureus PCM 2602, 2650 nM; in the data set with S. marcescens PCM 549 (PCM549, 24 h), 20 nM.
For the compound `COc1ccc(OP(=O)(Oc2ccc(OC)cc2)C(NC(=O)OCc2ccccc2)c2ccc3cc(C(=N)N)ccc3c2)cc1` (stereo not drawn) [Compound 8b, Cbz-6-AmNphth^P(OC6H4-4-OCH3)2], the “Inhibition … of human fibrinogen” value with SufA protease [4] is given as “weaker inhibitory effect on fibrinogen degradation”. Besides, the IC50 in the data set on E. coli PCM 2561 is > 150000 nM; with F. magna PCM 2822 (PCM2822, 24 h) it was 40 nM; in the data set on S. aureus PCM 2602, 19200 nM; in the data set with S. marcescens PCM 549 (PCM549, 24 h), 480 nM.
For the compound `COC(=O)c1ccc(OP(=O)(Oc2ccc(C(=O)OC)cc2)C(NC(=O)OCc2ccccc2)c2ccc3cc(C(=N)N)ccc3c2)cc1` (stereo not drawn) [Compound 8c, Cbz-6-AmNphth^P(OC6H4-4-COOCH3)2], in the data set on SufA protease [3] (cmpd. conc. 50 μM), the “% SufA inhibition” value is < 50%. Besides, in the data set with SufA protease [4], the “Inhibition … of human fibrinogen” value was “weaker inhibitory effect on fibrinogen degradation”. Also, the concentration for half-maximal inhibition (IC50) in the data set on E. coli PCM 2561 is 60900 nM; in the data set with F. magna PCM 2822 (PCM2822, 24 h), 6980 nM; in the data set with S. aureus PCM 2602, > 150000 nM; with S. marcescens PCM 549 (PCM549, 24 h), < 10 nM.
In the case of `CC1(C)S[C@@H]2[C@H](NC(=O)[C@H](N)c3ccccc3)C(=O)N2[C@H]1C(=O)O` [ampicillin], the IC50 was 180 nM in the data set with S. aureus and 10100 nM in the data set with E. coli.
For the compound `O=C(N[C@H](CO)[C@H](O)c1ccc([N+](=O)[O-])cc1)C(Cl)Cl` [chloramphenicol], the IC50 in the data set on S. aureus is 1590 nM; in the data set on E. coli, 373000 nM.
Turning to `CNC(C)C1CCC(N)C(OC2C(N)CC(N)C(OC3OCC(C)(O)C(NC)C3O)C2O)O1` (stereo not drawn) [gentamicin, reference compound], in the data set on S. marcescens PCM 549 (PCM549, MH broth, 24 h), the IC50 is 251 nM.

Values taken from paper PMC12380226, “Novel strategies for inhibiting SufA protease: the role of ester substituents and biological properties” (Future Medicinal Chemistry, 2025).
